Experimental data reported in US8105993B2, “Process compositions and production of acyl alkylisethionate compositions” (Huntsman Petrochemical LLC, priority 2006, dated 2012).

Columns and labels:
[1] = system: Zein; test: Zein irritation score (in vitro mildness); details: the lower the score, the more mild
Procedure: To evaluate the mildness of the products of the present invention, Zein scores were determined for a variety of sulfate and isethionate surfactants and their scores are reported in Table III:
The lower the Zein score, the more mild the composition.

[2] = levels of 10% by weight; cited from earlier work
[3] = Foaming test, one-liter capped rotating measuring cylinder foam machine; type: physicochemical; details: FIGS. 1A and 1B; 0.5% active of surfactant; compared with SLES or SLS based cleansers
Procedure: Foaming tests were performed using a one-liter capped rotating measuring cylinder foam machine at a rate of 30 revolutions per minute and ambient temperature ranging from about 20° C. to about 22° C. and at a concentration of 0.5% of total surfactants. Foam heights in the graduated cylinder were measured at the start and at 10 minutes of rotation. The results are shown below in Table I:
A second foaming test was performed using the same parameters as above, but a stripped coco fatty acid chain SCMI was tested in place of a whole coco fatty acid chain SCMI.

Row | Compound | Zein Score [1] [mg N/100 ml solution] | skin and eye irritancy [2] | foam appearance [3]
1 | CCCCCCCCCCCC(=O)OC(C)CS(=O)(=O)[O-].[Na+] (centres unmarked) [Sodium Lauroyl Methyl Isethionate] | 134 |  | 
2 | CCCCCCCCCCCCOS(=O)(=O)[O-].[Na+] [Sodium Lauryl Sulfate, sodium lauryl sulfate, reference compound] | 527 |  | 
3 | Sodium Cocoyl Ethyl Isethionate | 104 |  | 
4 | Sodium Lauroyl Ethyl Isethionate | 187 |  | 
5 | sodium cocoyl isethionate [reference compound] | 254 | non-skin irritant and eye irritant | 
6 | sodium cocoyl methyl isethionate | 147 |  | tighter and creamier
